“Also recorded” adds a separate entry of the source.
test system: loperamide-treated mice; experiment: Loperamide-induced mouse model of constipation (3-h stool weight, pellet number, water content); details: wildtype loperamide-treated mice

| Compound | effect of inactive analog on stool parameters |
| --- | --- |
| Cn1c(=O)c(-c2cc([N+](=O)[O-])ccc2N)nc2ccccc21 [inactive chemical analog of CFTRact-J027, reference compound] | nor was an inactive chemical analog of CFTRact-J027 effective |

test system: mice; experiment: Tear secretion / tear volume in mice (phenol red thread); type: in vivo, mouse; details: mouse, in vivo
Protocol: To measure unstimulated tear production, phenol red threads (Zone-Quick, Oasis Medical, Glendora, Calif., USA) were placed for 10 s in the lateral canthi of isofluorane-anesthetized mice using jewelers' forceps. Tear volume was measured as the length of thread wetting, as visualized under a dissecting microscope. Serial measurements were used to evaluate compound pharmacodynamics after application of 2-μL drops of compound formulations (50-100 μM compound in PBS containing 0.5% polysorbate and 0.5% DMSO) comparing to vehicle.
Tear secretion. To measure unstimulated tear production, phenol red threads (Zone-Quick, Oasis Medical, Glendora, Calif., USA) were placed for 10 s in the lateral canthi of isofluorane-anesthetized mice using jewelers' forceps. Tear volume was measured as the length of thread wetting, as visualized under a dissecting microscope. Serial measurements were used to evaluate compound pharmacodynamics after application of 2-[…]L drops of compound formulations (50-100 μM compound in PBS containing 0.5% polysorbate and 0.5% DMSO) comparing to vehicle.
Tear volume. Tear volume was measured using phenol red threads (Zone-Quick, Oasis Medical, Glendora, Calif.) as described. Threads were placed for 10 s in the lateral canthi of isofluorane-anesthetized mice using jewelers' forceps. Tear volume was determined from the length of thread wetting as visualized under a dissecting microscope. Serial measurements were done to evaluate compound pharmacodynamics after topical application of a single, 2.5-μL drop of ophthalmic formulation containing 0-100 μM of 1 or 12 in Ringer's solution with 0.3% carboxymethylcellulose (high viscosity, VWR, Radnor, Pa.), 0.015% benzalkonium chloride preservative, and 1% DMSO. Both eyes in each mouse received the same treatment to control for potential contralateral effects of a given treatment.

| Compound | basal tear secretion at 30 min | effect on tear secretion after 2 hours |
| --- | --- | --- |
| cholera toxin | substantially increased | undetectable |

same assay, conditions: single topical dose, 30 min

| Compound | basal tear secretion at 30 min |
| --- | --- |
| CC(C)Cn1c(=O)n(C)c(=O)c2[nH]cnc21 [IBMX, 3-isobutyl-1-methylxanthine, reference compound] | substantially increased |

same assay, conditions: single topical dose, after 2 hours

| Compound | effect on tear secretion after 2 hours |
| --- | --- |
| CC(C)Cn1c(=O)n(C)c(=O)c2[nH]cnc21 [IBMX, 3-isobutyl-1-methylxanthine, reference compound] | undetectable |

target: human wild-type CFTR (Homo sapiens, UniProt P13569); experiment: Cell-based plate reader (YFP iodide influx) assay of CFTR function; parameters: expressed in transfected cells; host or cells: Fischer rat thyroid (FRT) cells stably co-expressing YFP-H148Q; details: N,N-diethyl-N′-aryl-1,3,5-triazine diamine analogs; read-out: EC50 for CFTR activation
Protocol: The initiate rate of I^− influx was computed by determined using exponential regression. All compound plates contained negative controls (DMSO vehicle) and positive controls (20 μM forskolin).
High-throughput screening. […] The initiate rate of I^− influx was computed by determined using exponential regression. All compound plates contained negative controls (DMSO vehicle) and positive controls ([…] forskolin).
Platereader assays of chloride channel function. CFTR activity was assayed as described. […] I^− influx was measured in a plate reader with initial baseline read for 2 s and then for 12 s after rapid addition of an I^−-containing solution. TMEM16A activity was assayed similarly as described using FRT cells co-expressing YFP and TMEM16A. Activity of non-TMEM16A CaCC was assayed as described in HT-29 cells expressing YFP. In each assay initial rates of I^− influx were computed as a linear measure of channel function.

Sequence of human wild-type CFTR (P13569 whole entry): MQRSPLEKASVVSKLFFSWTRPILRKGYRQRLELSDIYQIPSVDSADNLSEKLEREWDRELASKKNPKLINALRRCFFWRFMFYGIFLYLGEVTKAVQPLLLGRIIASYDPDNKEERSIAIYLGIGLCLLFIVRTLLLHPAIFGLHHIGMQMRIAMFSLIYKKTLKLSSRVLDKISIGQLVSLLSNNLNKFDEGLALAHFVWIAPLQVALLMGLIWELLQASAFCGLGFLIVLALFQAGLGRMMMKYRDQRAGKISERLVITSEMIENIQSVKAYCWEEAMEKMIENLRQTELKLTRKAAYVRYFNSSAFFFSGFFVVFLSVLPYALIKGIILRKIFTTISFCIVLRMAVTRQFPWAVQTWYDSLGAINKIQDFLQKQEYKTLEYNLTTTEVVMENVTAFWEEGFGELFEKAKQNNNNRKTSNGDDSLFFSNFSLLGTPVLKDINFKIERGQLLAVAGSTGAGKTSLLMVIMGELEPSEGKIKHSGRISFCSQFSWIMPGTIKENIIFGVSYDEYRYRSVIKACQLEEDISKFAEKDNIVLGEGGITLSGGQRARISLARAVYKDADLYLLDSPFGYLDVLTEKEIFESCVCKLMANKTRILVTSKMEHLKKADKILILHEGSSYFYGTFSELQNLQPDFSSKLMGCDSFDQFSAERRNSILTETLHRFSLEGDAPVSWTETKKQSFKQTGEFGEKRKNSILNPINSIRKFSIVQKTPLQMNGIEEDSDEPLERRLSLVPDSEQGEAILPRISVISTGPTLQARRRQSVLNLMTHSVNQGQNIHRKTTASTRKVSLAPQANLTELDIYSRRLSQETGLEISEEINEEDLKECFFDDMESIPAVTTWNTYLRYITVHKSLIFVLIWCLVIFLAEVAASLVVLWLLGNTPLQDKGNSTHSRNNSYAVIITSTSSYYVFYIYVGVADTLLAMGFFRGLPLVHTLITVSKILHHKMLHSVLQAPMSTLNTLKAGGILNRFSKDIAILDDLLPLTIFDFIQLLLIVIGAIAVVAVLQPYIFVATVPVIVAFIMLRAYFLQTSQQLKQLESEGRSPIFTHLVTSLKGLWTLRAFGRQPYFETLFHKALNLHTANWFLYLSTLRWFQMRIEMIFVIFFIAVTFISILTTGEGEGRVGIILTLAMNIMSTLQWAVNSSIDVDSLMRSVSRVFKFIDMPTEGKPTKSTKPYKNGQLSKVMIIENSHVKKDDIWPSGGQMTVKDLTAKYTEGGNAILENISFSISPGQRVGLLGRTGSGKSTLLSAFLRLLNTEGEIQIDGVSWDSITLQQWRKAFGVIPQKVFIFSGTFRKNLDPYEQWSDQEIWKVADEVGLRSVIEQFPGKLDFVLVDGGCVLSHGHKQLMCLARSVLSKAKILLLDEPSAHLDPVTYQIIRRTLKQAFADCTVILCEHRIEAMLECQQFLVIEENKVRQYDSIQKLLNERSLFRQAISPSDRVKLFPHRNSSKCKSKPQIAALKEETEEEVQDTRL

| Compound | EC50 [nM] |
| --- | --- |
| CCN(CC)c1nc(Nc2ccc(F)cc2)nc(OC(C(F)(F)F)C(F)(F)F)n1 [6f, N,N-Diethyl-N′-(4-fluorophenyl)-6-[(1,1,1,3,3,3-hexafluoropropan-2-yl)oxy]-1,3,5-triazine-2,4-diamine] | 700 |
| CCN(CC)c1nc(Nc2cccc(C(=O)O)c2)nc(OCC(F)(F)C(F)F)n1 [7b, 3-{[4-(Diethylamino)-6-(2,2,3,3-tetrafluoropropoxy)-1,3,5-triazin-2-yl]amino}benzoic acid] | 500 |

same assay, conditions: bicyclic aniline analogs; read-out: EC50

| Compound | EC50 [nM] |
| --- | --- |
| CCN(CC)c1nc(Nc2ccc3ncoc3c2)nc(OC(C(F)(F)F)C(F)(F)F)n1 [6j, N′-(1,3-Benzoxazol-6-yl)-N,N-diethyl-6-[(1,1,1,3,3,3-hexafluoropropan-2-yl)oxy]-1,3,5-triazine-2,4-diamine] | 150 |

same assay, conditions: commercial analogs; FRT cells with YFP and wildtype CFTR, 125 nM forskolin

| Compound | % Activation [%] |
| --- | --- |
| CN(C)c1nc(Nc2ccc(OC(F)(F)Cl)cc2)nc(OCC(F)(F)F)n1 [K075] | 32 |
| CN(C)c1nc(Nc2ccc(Cl)cc2)nc(OCCNC(=O)c2ccc(Cl)cc2)n1 [K087] | 47 |
| CC(C)Nc1nc(Nc2ccc([N+](=O)[O-])cc2)nc(OC(C(F)(F)F)C(F)(F)F)n1 [K027] | 20 |
| CCCCNc1nc(Nc2ccc(OC(F)(F)F)cc2)nc(OCC(F)(F)F)n1 [K030] | 16 |
| CCCCCCNc1nc(Nc2ccc([N+](=O)[O-])cc2)nc(OCC)n1 [K088] | 33 |
| FC(F)(F)C(Oc1nc(Nc2cccnc2)nc(OC(C(F)(F)F)C(F)(F)F)n1)C(F)(F)F [K017] | 16 |
| O=[N+]([O-])c1ccccc1Nc1nc(OC(C(F)(F)F)C(F)(F)F)nc(OC(C(F)(F)F)C(F)(F)F)n1 [K013] | 15 |
| CC(=O)c1ccc(Nc2nc(OC(C(F)(F)F)C(F)(F)F)nc(OC(C(F)(F)F)C(F)(F)F)n2)cc1 [K016] | 19 |
| CNc1nc(Nc2ccc(C(C)=O)cc2)nc(OC(C(F)(F)F)C(F)(F)F)n1 [K001] | 32 |
| FC(F)(F)COc1nc(Nc2ccc(OC(F)(F)F)cc2)nc(NC2CC2)n1 [K079] | 40 |
| CCCCCCNc1nc(Nc2ccc(I)cc2)nc(OC)n1 [K039] | 27 |
| FC(F)(F)COc1nc(N2CCCCC2)nc(N(c2ccccc2)c2ccccc2)n1 [K057] | 28 |
| COc1nc(NCCO)nc(Nc2ccc(I)cc2)n1 [K040] | 17 |
| CCOc1nc(Nc2ccc(Cl)cc2)nc(NC2CCCCC2)n1 [K038] | 53 |
| C=CCNc1nc(Nc2ccc(OC(F)(F)Cl)cc2)nc(OCC(F)(F)F)n1 [K076] | 46 |
| CCOc1nc(NCCN2CCOCC2)nc(Nc2ccc([N+](=O)[O-])cc2)n1 [K090] | 52 |
| FC(F)(F)COc1nc(Nc2ccc(OC(F)(F)Cl)cc2)nc(NC2CC2)n1 [K083] | 54 |

| Compound | % Activation [%] |
| --- | --- |
| COc1nc(Nc2ccccc2)nc(Nc2ccccc2)n1 [K008] | 32 |
| FC(F)(F)COc1nc(NCc2ccccc2)nc(Nc2ccc(OC(F)(F)Cl)cc2)n1 [K080] | 26 |
| FC(F)(F)COc1nc(Nc2ccc(OC(F)(F)Cl)cc2)nc(OCC(F)(F)F)n1 [K026] | 16 |
| FC(F)(F)COc1nc(Nc2ccc(OC(F)(F)Cl)cc2)nc(N2CCOCC2)n1 [K069] | 37 |
| CCCCCCNc1nc(Nc2ccc(Cl)cc2)nc(OCC)n1 [K036] | 46 |
| FC(F)(F)COc1nc(Nc2ccc(OC(F)(F)F)cc2)nc(N2CCCCC2)n1 [K073] | 19 |
| CCC(C)Nc1nc(Nc2ccc([N+](=O)[O-])cc2)nc(OC(C(F)(F)F)C(F)(F)F)n1 (stereo not drawn) [K056] | 38 |
| FC(F)(F)C(Oc1nc(Nc2ccc(Cl)cc2)nc(N2CCOCC2)n1)C(F)(F)F [K065] | 38 |
| FC(F)(F)C(Oc1nc(Nc2ccccc2)nc(OC(C(F)(F)F)C(F)(F)F)n1)C(F)(F)F [K010] | 21 |
| CCOc1nc(NCCO)nc(Nc2ccc(I)cc2)n1 [K043] | 19 |
| Cc1ccccc1Nc1nc(OCC(F)(F)F)nc(OCC(F)(F)F)n1 [K019] | 28 |
| COc1nc(Nc2ccc([N+](=O)[O-])cc2)nc(OC)n1 [K023] | 41 |
| CCOc1nc(NCCO)nc(Nc2ccc([N+](=O)[O-])cc2)n1 [K049] | 28 |
| COc1nc(Nc2ccc(O)cc2)nc(OC(C(F)(F)F)C(F)(F)F)n1 [K031] | 61 |
| C=CCNc1nc(Nc2ccc([N+](=O)[O-])cc2)nc(OC)n1 [K048] | 46 |
| CCOc1nc(Nc2ccc(-c3nc4ccccc4o3)cc2)nc(N2CCOCC2)n1 [K066] | 87 |
| CCOc1nc(Nc2ccc(I)cc2)nc(NC2CCCCC2)n1 [K046] | 16 |

same assay, conditions: commercial analogs; read-out: EC50 (full-dose response assay, compounds >80% activation)

| Compound | EC50 [nM] |
| --- | --- |
| CCOc1nc(Nc2ccc(-c3nc4ccccc4o3)cc2)nc(N2CCOCC2)n1 [K066] | 2900 |

test system: rat liver microsomes; experiment: In vitro metabolic stability in rat liver microsomes; type: in vitro ADME; details: 5 μM, rat hepatic microsomes, NADPH
Protocol: In vitro metabolic stability. Compounds (each 5 μM) were incubated for specified times at 37° C. with rat liver microsomes (1 mg/ml; Sigma-Aldrich) in potassium phosphate buffer containing 1 mM NADPH, as described^14.

| Compound | original compound remaining at 60 min [%] |
| --- | --- |
| CCN(CC)c1nc(Nc2ccc3ncoc3c2)nc(OC(C(F)(F)F)C(F)(F)F)n1 [6j, N′-(1,3-Benzoxazol-6-yl)-N,N-diethyl-6-[(1,1,1,3,3,3-hexafluoropropan-2-yl)oxy]-1,3,5-triazine-2,4-diamine] | ~60 |

same assay, conditions: NADPH

| Compound | metabolic stability in hepatic microsomes, in words |
| --- | --- |
| CCN(CC)c1nc(Nc2ccc3ncoc3c2)nc(OC(C(F)(F)F)C(F)(F)F)n1 [6j, N′-(1,3-Benzoxazol-6-yl)-N,N-diethyl-6-[(1,1,1,3,3,3-hexafluoropropan-2-yl)oxy]-1,3,5-triazine-2,4-diamine] | metabolized slowly; also recorded: substantially greater in vitro metabolic stability than 1 or 12 |

From patent US11230535B2, “CFTR regulators and methods of use thereof” (THE REGENTS OF THE UNIVERSITY OF CALIFORNIA, priority 2015, dated 2022)
